Experimental data as given in ChEMBL document CHEMBL6083286, “Discovery of ERD-12310A as an Exceptionally Potent and Orally Efficacious PROTAC Degrader of Estrogen Receptor α (ERα)” (J Med Chem, 2024).
Active and inactive are the calls of the source. No cut-off for these calls is given here.

Assays:
T47D [1] = experiment: PROTAC activity at CRBN/ ERalpha Y537S mutant in human T47D cells assessed as reduction in ERalpha protein level at 10 to 100 nM measured at 7 hrs by Western blot analysis; assay type: cell-based; set-up: scale not given: the % may be the effect or the level left; settings: dose 10-100 nM
[2] = target: T1, Protein cereblon/Estrogen receptor (Homo sapiens, UniProt P03372+Q96SW2); experiment: PROTAC activity at CRBN/wild type ERalpha in human T47D cells assessed as reduction in ERalpha protein level at 10 to 100 nM measured at 7 hrs by Western blot analysis; assay type: cell-based; settings: dose 10-100 nM
Target sequence in this assay (P03372 whole entry, looked up): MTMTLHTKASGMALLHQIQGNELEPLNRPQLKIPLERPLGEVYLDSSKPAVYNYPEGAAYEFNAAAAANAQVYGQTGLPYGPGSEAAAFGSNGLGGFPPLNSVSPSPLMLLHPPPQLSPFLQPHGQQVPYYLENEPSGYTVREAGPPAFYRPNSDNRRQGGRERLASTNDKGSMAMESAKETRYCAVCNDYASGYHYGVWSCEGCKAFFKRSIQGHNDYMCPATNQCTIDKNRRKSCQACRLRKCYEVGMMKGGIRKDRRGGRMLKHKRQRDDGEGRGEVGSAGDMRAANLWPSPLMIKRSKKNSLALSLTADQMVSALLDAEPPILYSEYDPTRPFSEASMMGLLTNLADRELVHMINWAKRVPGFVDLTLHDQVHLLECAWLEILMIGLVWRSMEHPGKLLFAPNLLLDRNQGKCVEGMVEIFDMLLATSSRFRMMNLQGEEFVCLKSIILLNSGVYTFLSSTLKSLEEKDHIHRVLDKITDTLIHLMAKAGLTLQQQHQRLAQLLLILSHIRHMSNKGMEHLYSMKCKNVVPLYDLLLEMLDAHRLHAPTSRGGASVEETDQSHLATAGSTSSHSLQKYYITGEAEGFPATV
Target sequence in this assay (Q96SW2 whole entry, looked up): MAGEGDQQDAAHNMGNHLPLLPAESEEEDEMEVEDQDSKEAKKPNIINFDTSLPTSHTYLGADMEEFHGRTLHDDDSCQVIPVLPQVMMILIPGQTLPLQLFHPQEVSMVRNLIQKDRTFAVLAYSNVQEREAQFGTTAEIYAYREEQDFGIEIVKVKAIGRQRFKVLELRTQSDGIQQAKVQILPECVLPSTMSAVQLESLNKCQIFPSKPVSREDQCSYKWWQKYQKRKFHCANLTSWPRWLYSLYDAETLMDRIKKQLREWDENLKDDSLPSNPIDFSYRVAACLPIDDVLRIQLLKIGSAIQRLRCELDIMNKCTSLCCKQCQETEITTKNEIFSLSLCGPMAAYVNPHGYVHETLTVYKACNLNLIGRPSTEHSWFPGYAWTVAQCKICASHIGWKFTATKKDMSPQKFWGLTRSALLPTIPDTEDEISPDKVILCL

MCF7 = experiment: Antiproliferative activity against human MCF7 cells assessed as cell growth inhibition incubated for 4 days by crystal violet staining based assay; assay type: functional; settings: time 4.0 day
T47D [3] = experiment: PROTAC activity at CRBN/ ERalpha D538G mutant in human T47D cells assessed as reduction in ERalpha protein level at 10 to 100 nM measured at 7 hrs by Western blot analysis; assay type: cell-based; set-up: scale not given: the % may be the effect or the level left; settings: dose 10-100 nM
[4] = target: T1, Protein cereblon/Estrogen receptor; experiment: PROTAC activity at CRBN/ERalpha in human MCF7 cells assessed as reduction in ERalpha protein level measured after 12 hrs by Western blot analysis relative to control; assay type: cell-based
Target sequence in this assay (P03372 whole entry, looked up): as the sequence (P03372 whole entry, looked up) above
Target sequence in this assay (Q96SW2 whole entry, looked up): as the sequence (Q96SW2 whole entry, looked up) above

[5] = target: T1, Protein cereblon/Estrogen receptor; experiment: PROTAC activity at CRBN/ERalpha in human MCF7 cells assessed as reduction in ERalpha protein level measured after 12 hrs by Western blot analysis; assay type: cell-based
Target sequence in this assay (P03372 whole entry): as the sequence (P03372 whole entry, looked up) above
Target sequence in this assay (Q96SW2 whole entry): as the sequence (Q96SW2 whole entry, looked up) above

Protein cereblon = Protein cereblon (Homo sapiens, UniProt Q96SW2); experiment: Binding affinity to wild type GST-tagged human CRBN by HTRF assay
[6] = Drug concentration in female Sprague-Dawley rat plasma at 3 mg/kg, po measured at 1 hr by LC-MS analysis; assay type: ADME, organism-based
[7] = Drug concentration in female Sprague-Dawley rat plasma at 3 mg/kg, po measured at 24 hrs by LC-MS analysis; assay type: ADME, organism-based
[8] = Drug concentration in female Sprague-Dawley rat plasma at 3 mg/kg, po measured at 6 hrs by LC-MS analysis; assay type: ADME, organism-based
[9] = Drug concentration in female Sprague-Dawley rat plasma at 3 mg/kg, po measured at 3 hrs by LC-MS analysis; assay type: ADME, organism-based
[10] = Metabolic stability rat liver microsome assessed as half life; assay type: ADME; settings: microsomes
[11] = Metabolic stability mouse liver microsome assessed as half life; assay type: ADME; settings: microsomes
[12] = Stability in mouse plasma assessed as half life; assay type: ADME, cell-free
[13] = Stability in rat plasma assessed as half life; assay type: ADME, cell-free
[14] = Stability in human plasma assessed as half life; assay type: ADME, cell-free

Sequence of Protein cereblon (Q96SW2 whole entry): as the sequence (Q96SW2 whole entry, looked up) above

Compound | Emax [4] [%] | DC50 [5] [nM] | further results
CN(C)C[C@@H]1CCC2(CCN(c3ccc([C@@H]4c5ccc(O)cc5CC[C@@H]4c4ccccc4)cc3)CC2)OC1 | – | – | Activity (T47D [1]): inactive; Activity [2]: inactive; Activity (MCF7): Active; Activity (T47D [3]): inactive
O=C1CC[C@H](N2Cc3c(ccc4c3OCC43CCN(CCCCCC4CCN(c5ccc([C@@H]6c7ccc(O)cc7CC[C@@H]6c6ccccc6)cc5)CC4)CC3)C2=O)C(=O)N1 | 105 | 0.42 | –
C[C@]12CC[C@@H]3c4ccc(O)cc4C[C@@H](CCCCCCCCC[S+]([O-])CCCC(F)(F)C(F)(F)F)[C@H]3[C@@H]1CC[C@@H]2O (stereo partly drawn) | 100 | – | –
O=C1CC[C@H](N2Cc3c(ccc4c3OCC43CCN(CC4CCC5(CCN(c6ccc([C@@H]7c8ccc(O)cc8CC[C@@H]7c7ccccc7)cc6)CC5)O4)CC3)C2=O)C(=O)N1 (stereo partly drawn) | 86 | 0.604 | –
O=C1CC[C@H](N2Cc3c(ccc4c3OCC43CCN(C(=O)CC4CCN(c5ccc([C@@H]6c7ccc(O)cc7CC[C@@H]6c6ccccc6)cc5)CC4)CC3)C2=O)C(=O)N1 | 86 | 0.025 | –
O=C1CC[C@H](N2Cc3c(ccc4c3OCC43CCN(CC4CCC5(CCN(c6ccc([C@@H]7c8ccc(O)cc8CC[C@@H]7c7ccccc7)cc6)CC5)OC4)CC3)C2=O)C(=O)N1 (stereo partly drawn) | 99 | 0.139 | –
O=C1CC[C@H](N2Cc3c(ccc4c3OCC43CCN(CC(=O)N4CCC5(CCN(c6ccc([C@@H]7c8ccc(O)cc8CC[C@@H]7c7ccccc7)cc6)CC5)C4)CC3)C2=O)C(=O)N1 | 100 | 0.0419 | –
O=C1CC[C@H](N2Cc3c(ccc4c3OCC43CCN(CC4CC5(C4)CN(c4ccc([C@@H]6c7ccc(O)cc7CC[C@@H]6c6ccccc6)cc4)C5)CC3)C2=O)C(=O)N1 | 81 | 0.156 | –
O=C1CC[C@H](N2Cc3c(ccc4c3OCC43CCN(CC4COC5(CCN(c6ccc([C@@H]7c8ccc(O)cc8CC[C@@H]7c7ccccc7)cc6)CC5)OC4)CC3)C2=O)C(=O)N1 | 100 | 0.167 | –
O=C1CC[C@H](N2Cc3c(ccc4c3OCC43CCN(C(=O)CN4CCC5(CCN(c6ccc([C@@H]7c8ccc(O)cc8CC[C@@H]7c7ccccc7)cc6)CC5)C4)CC3)C2=O)C(=O)N1 | 107 | 0.029 | –
O=C1CC[C@H](N2Cc3c(ccc4c3OCC43CCN(CCC4CCN(c5ccc([C@@H]6c7ccc(O)cc7CC[C@@H]6c6ccccc6)cc5)CC4)CC3)C2=O)C(=O)N1 | 80 | 0.0043 | –
O=C1CC[C@H](N2Cc3c(ccc4c3OCC43CCN(CCCCC4CCN(c5ccc([C@@H]6c7ccc(O)cc7CC[C@@H]6c6ccccc6)cc5)CC4)CC3)C2=O)C(=O)N1 | 105 | 0.031 | –
O=C1CC[C@H](N2Cc3c(ccc4c3OCC43CCN(CC(=O)N4CCC5(CC4)CCN(c4ccc([C@@H]6c7ccc(O)cc7CC[C@@H]6c6ccccc6)cc4)CC5)CC3)C2=O)C(=O)N1 | 105 | 0.0363 | –
O=C1CC[C@H](N2Cc3c(ccc4c3OCC43CCN(C(=O)CN4CC5(CCN(c6ccc([C@@H]7c8ccc(O)cc8CC[C@@H]7c7ccccc7)cc6)CC5)C4)CC3)C2=O)C(=O)N1 | 106 | 0.018 | –
O=C1CC[C@H](N2Cc3c(ccc4c3OCC43CCN(CCCC4CCN(c5ccc([C@@H]6c7ccc(O)cc7CC[C@@H]6c6ccccc6)cc5)CC4)CC3)C2=O)C(=O)N1 | 98 | 0.038 | –
CN1C(=O)CC[C@H](N2Cc3c(ccc4c3OCC43CCN(C[C@@H]4CCC5(CCN(c6ccc([C@@H]7c8ccc(O)cc8CC[C@@H]7c7ccccc7)cc6)CC5)OC4)CC3)C2=O)C1=O | – | – | Activity (T47D [1]): inactive; Activity (Protein cereblon): inactive; Activity [2]: inactive; Activity (MCF7): Active; Activity (T47D [3]): inactive
O=C1CC[C@H](N2Cc3c(ccc4c3OCC43CCN(CC4CCC5(CC4)CCN(c4ccc([C@@H]6c7ccc(O)cc7CC[C@@H]6c6ccccc6)cc4)CC5)CC3)C2=O)C(=O)N1 | 99 | 0.337 | –
O=C1CC[C@H](N2Cc3c(ccc4c3OCC43CCN(C(=O)C4CCN(c5ccc([C@@H]6c7ccc(O)cc7CC[C@@H]6c6ccccc6)cc5)CC4)CC3)C2=O)C(=O)N1 | 82 | 0.028 | –
O=C1CC[C@H](N2Cc3c(ccc4c3OCC43CCN(CC4CCC5(CCN(c6ccc([C@@H]7c8ccc(O)cc8CC[C@@H]7c7ccccc7)cc6)CC5)C4)CC3)C2=O)C(=O)N1 (stereo partly drawn) | 92 | 0.126 | –

Compound | Emax [4] [%] | DC50 [5] [nM] | further results
O=C1CCC(N2Cc3c(ccc4c3OCC43CCN(CC4COC5(CCN(c6ccc([C@@H]7c8ccc(O)cc8CC[C@@H]7c7ccccc7)cc6)CC5)C4)CC3)C2=O)C(=O)N1 (stereo partly drawn) | 79 | 0.041 | –
O=C1CC[C@H](N2Cc3c(ccc4c3OCC43CCN(C(=O)CN4CCCC5(CCN(c6ccc([C@@H]7c8ccc(O)cc8CC[C@@H]7c7ccccc7)cc6)CC5)C4)CC3)C2=O)C(=O)N1 | 95 | 0.202 | –
O=C1CC[C@H](N2Cc3c(ccc4c3OCC43CCN(CC(=O)N4CCC5(CC4)CN(c4ccc([C@@H]6c7ccc(O)cc7CC[C@@H]6c6ccccc6)cc4)C5)CC3)C2=O)C(=O)N1 | 102 | 0.253 | concentration at 1 h [6]: 32 ng/mL; concentration at 24 h [7]: < 5 ng/mL; concentration at 6 h [8]: 17 ng/mL; concentration at 3 h [9]: 26 ng/mL
O=C1CC[C@H](N2Cc3c(ccc4c3OCC43CCN(CC4CC5(CCN(c6ccc([C@@H]7c8ccc(O)cc8CC[C@@H]7c7ccccc7)cc6)CC5)C4)CC3)C2=O)C(=O)N1 | 87 | 0.147 | –
CCNCCc1ccc(CN(CC)c2cc(OC)ccc2[C@@H]2CCc3cc(O)ccc3C2)cc1 | – | – | Activity (T47D [1]): Active; Activity [2]: Active; Activity (T47D [3]): Active
O=C1CC[C@H](N2Cc3c(ccc4c3OCC43CCN(CC4CCN(c5ccc([C@@H]6c7ccc(O)cc7CC[C@@H]6c6ccccc6)cc5)CC4)CC3)C2=O)C(=O)N1 | 37 | – | –
Oc1ccc2c(c1)CC[C@H](c1ccccc1)[C@@H]2c1ccc(OCCN2CCCC2)cc1 | – | – | Activity (T47D [1]): inactive; Activity [2]: inactive; Activity (T47D [3]): inactive
O=C1CC[C@H](N2Cc3c(ccc4c3OCC43CCN(C(=O)CN4CCC5(CC4)CN(c4ccc([C@@H]6c7ccc(O)cc7CC[C@@H]6c6ccccc6)cc4)C5)CC3)C2=O)C(=O)N1 | 96 | 0.034 | concentration at 1 h [6]: 16 ng/mL; concentration at 24 h [7]: < 5 ng/mL; concentration at 6 h [8]: 9 ng/mL; concentration at 3 h [9]: 13 ng/mL
O=C1CC[C@H](N2Cc3c(ccc4c3OCC43CCN(CC4CCC5(CC4)CN(c4ccc([C@@H]6c7ccc(O)cc7CC[C@@H]6c6ccccc6)cc4)C5)CC3)C2=O)C(=O)N1 | 95 | 0.11 | –
O=C1CC[C@H](N2Cc3cc(N4CCN(CC5CCN(c6ccc([C@@H]7c8ccc(O)cc8CC[C@@H]7c7ccccc7)cc6)CC5)CC4)ccc3C2=O)C(=O)N1 [VEPDEGESTRANT] | – | – | Activity (T47D [1]): > 80%; Activity (T47D [3]): > 80%
O=C1CC[C@H](N2Cc3c(ccc4c3OCC43CCN(CC(=O)N4CCCC5(CCN(c6ccc([C@@H]7c8ccc(O)cc8CC[C@@H]7c7ccccc7)cc6)CC5)C4)CC3)C2=O)C(=O)N1 | 99 | 0.0288 | –
O=C1CC[C@H](N2Cc3c(ccc4c3OCC43CCN(CC4CC5(CCN(c6ccc([C@@H]7c8ccc(O)cc8CC[C@@H]7c7ccccc7)cc6)CC5)CO4)CC3)C2=O)C(=O)N1 (stereo partly drawn) | 94 | 0.303 | –
O=C1CC[C@H](N2Cc3c(ccc4c3OCC43CCN(C(=O)CCCC4CCN(c5ccc([C@@H]6c7ccc(O)cc7CC[C@@H]6c6ccccc6)cc5)CC4)CC3)C2=O)C(=O)N1 | 95 | 0.079 | –
O=C1CC[C@H](N2Cc3c(ccc4c3OCC43CCN(C(=O)CCC4CCN(c5ccc([C@@H]6c7ccc(O)cc7CC[C@@H]6c6ccccc6)cc5)CC4)CC3)C2=O)C(=O)N1 | 89 | 0.116 | –
O=C1CC[C@H](N2Cc3c(ccc4c3OCC43CCN(C(=O)CN4CC5(C4)CN(c4ccc([C@@H]6c7ccc(O)cc7CC[C@@H]6c6ccccc6)cc4)C5)CC3)C2=O)C(=O)N1 | 99 | 0.011 | –
O=C1CC[C@H](N2Cc3c(ccc4c3OCC43CCN(C[C@H]4CCC5(CCN(c6ccc([C@@H]7c8ccc(O)cc8CC[C@@H]7c7ccccc7)cc6)CC5)OC4)CC3)C2=O)C(=O)N1 | 100 | 0.142 | –
O=C1CC[C@H](N2Cc3c(ccc4c3OCC43CCNCC3)C2=O)C(=O)N1 | – | – | t1/2 [10]: > 1 h; IC50 (Protein cereblon): 230 nM; t1/2 [11]: > 1 h; t1/2 [12]: > 1 h; t1/2 [13]: > 1 h; t1/2 [14]: > 1 h
O=C1CC[C@H](N2Cc3c(ccc4c3OCC43CCN(C(=O)CN4CCC5(CC4)CCN(c4ccc([C@@H]6c7ccc(O)cc7CC[C@@H]6c6ccccc6)cc4)CC5)CC3)C2=O)C(=O)N1 | 103 | 0.035 | –
O=C1CC[C@H](N2Cc3c(ccc4c3OCC43CCN(CC(=O)N4CC5(C4)CN(c4ccc([C@@H]6c7ccc(O)cc7CC[C@@H]6c6ccccc6)cc4)C5)CC3)C2=O)C(=O)N1 | 99 | 0.0142 | –
